Marks after values point to notes of the source that are not given here.
Assays:
[1] = Phase I trial combining PLD and trabectedin: MTD, safety, drug-related adverse events; type: in vivo, human
Protocol: (§1) A phase I trial combining PLD and trabectedin was performed. The objective of this study was to determine the maximum tolerated dose (MTD) of trabectidin in combination with PLD 30 mg/m^2 administered every 21 clays. Additional objectives were to evaluate the safety profile of this combination of drugs and to evaluate the pharmacokinetics of trabectidin and PDL when given in combination. The maximum tolerated dose (MTD) relates to the highest dose at which less than one third of the subjects in a dose-level cohort experienced dose-limiting toxicity (DLT).
(§2) We designed a dose finding trial with a fixed PLD dose of 30 mg/m^2 administered intravenously over one hour, followed immediately by one of six trabectedin doses (0.4, 0.6, 0.75, 0.9, 1.1, and 1.3 mg/m^2) administered intravenously over 3 hours. This treatment was repeated every 21 days.
Entry-criteria included normal liver function tests, limited prior, doxorubicin-exposure (dose less than 250 mg/m^2), normal cardiac function and Eastern Cooperative Oncology Group (ECOG) Performance Status (PS) score of 0 or 1.
Worst on-treatment drug related grade 3 and 4 toxicities have been minimal, limited to neutropenia and transaminases elevation. Tables 5a and 5b show the frequently reported drug-related Grade ¾ adverse events in least 5% of subjects. The adverse events reported at any time from first treatment dose up to 30 days after the last treatment dose are included. In order to define the toxicity grade, NCI common criteria are used.
In addition, Tables 6a and 6b show the drug-related serious adverse events reported.
Out of 18 subjects that discontinued treatment only one subject terminated treatment due to drug related adverse event (Tables 7a and 7b).

[2] = system: sarcoma and breast and ovarian carcinoma; details: phase I, ET-743 alone; cited from earlier work
[3] = patients, infusion over 24-72 hr; cited from earlier work
[4] = system: cancer; experiment: Phase I trial combining PLD and trabectedin: best overall response; type: in vivo, human; details: for Best Overall Response: SD (patients, tumour type): stable disease > 3 months
Protocol: as §1, §2
Thirty patients, 14 with sarcomas, 2 with ovarian cancer, 2 with pancreatic cancer, 2 with head and neck carcinoma, 1 with bladder cancer, 1 with breast cancer, 1 with gastric cancer, 1 with NSCLC, 1 with SCLC and 5 more with other types of cancers have been treated (Table 1).
Fourteen (14) additional patients (five with sarcoma, and one each carcinoid tumor, pancreatic, bladder, head and neck, thyroid, breast, gastric, SCLC and ovarian cancer) have had stable disease for > 3 months (Table 8a and 8b).

[5] = increase in plasma liver enzymes, cholangitis; cited from earlier work
[6] = Phase I dose escalation study of Doxorubicin (60 mg/m^2) in combination with ET-743; type: in vivo, human; details: in combination with Doxorubicin 60 mg/m^2, ET-743 over 3 hours
Protocol: The following figures indicate that the use of PLD in combination with ET-743, allows an escalated dose of ET-743 to be tolerated, in comparison to when Doxorubicin is used. A phase I dose escalation study of Doxorubicin (60 mg/m^2) in combination with ET-743, administered over 3 hours, could only support a ET-743 dose of 0.7 mg/m^2. In a Phase I dose escalation study of 30 mg/m^2 PLD in combination with ET-743 administered over 3 hours, ET-743 could be escalated to 1.1 mg/m^2.

[7] = Phase I trial combining PLD and trabectedin: pharmacokinetics of trabectedin; type: in vivo, human; details: for AUC∞ / Cl / Cmax / T1/2: mean; for Impact of concomitant PLD on the pharmacokinetics of trabectedin: preliminary analysis, versus historical control data of trabectedin alone
Protocol: as §1, §2
Based on preliminary pharmacokinetic analysis, the values of trabectedin CL (systematic clearance after i.v. dose), t½ (half life) and Vss (apparent volume of distribution at steady state) are within the range observed when trabectedin is given alone (historical control data) (FIG. 1, Table 9),

[8] = system: human tumour xenografts; details: xenografts including melanoma and ovarian and breast carcinoma; cited from earlier work
[9] = high-dose dexamethasone pretreatment, female rat; cited from earlier work
[10] = ET743 0.4 mg/m^2 + PLD 30 mg/m^2, N = 3
[11] = ET743 0.6 mg/m^2 + PLD 30 mg/m^2, N = 3
[12] = ET743 0.75 mg/m^2 + PLD 30 mg/m^2, N = 3
[13] = ET743 0.9 mg/m^2 + PLD 30 mg/m^2, N = 3
[14] = ET743 1.1 mg/m^2 + PLD 30 mg/m^2, N = 12
[15] = ET743 1.3 mg/m^2 + PLD 30 mg/m^2, N = 6
[16] = Total, all ET743 dose levels + PLD 30 mg/m^2, N = 30
[17] = ET-743 0.9 mg/m^2 3 hours infusion after PLD 30 mg/m^2 1 hour infusion, N 3
[18] = ET-743 1.1 mg/m^2 3 hours infusion after PLD 30 mg/m^2 1 hour infusion, N 3
[19] = ET-743 1.3 mg/m^2 3 hours infusion after PLD 30 mg/m^2 1 hour infusion, N 2

## COc1cc2c(cc1O)CCN[C@]21CS[C@@H]2c3c(OC(C)=O)c(C)c4c(c3[C@H](COC1=O)N1[C@@H]2[C@H]2c3c(cc(C)c(OC)c3O)C[C@@H]([C@@H]1O)N2C)OCO4 [ET743, Ecteinascidin 743]
[1]; [10]
  Drug related serious adverse events, subjects: Nausea/Vomiting: 0
  Grade 3/4 drug-related AE, subjects: Allergic Reaction: 0
  Grade 3/4 drug-related AE, subjects: Liver and Biliary System: 0
  Grade 3/4 drug-related AE, subjects: Nausea: 0
  Grade 3/4 drug-related AE, subjects: Other: 0
  Grade 3/4 drug-related AE, subjects: Palmar-Plantar Erythrodysesthesia: 0
  Grade 3/4 drug-related AE, subjects: SGOT Increased: 0
  Grade 3/4 drug-related AE, subjects: SGPT Increased: 0
  Total no. subjects with Grade 3/4 drug-related AE: 0
  Total no. subjects with SAE (drug related serious adverse events): 0
  Treatment termination, subjects: Death: 0
  Treatment termination, subjects: Drug-Related AE (hand-foot syndrome): 0
[1]; [11]
  Drug related serious adverse events, subjects: Nausea/Vomiting: 0
  Grade 3/4 drug-related AE, subjects: Allergic Reaction: 0
  Grade 3/4 drug-related AE, subjects: Liver and Biliary System: 0
  Grade 3/4 drug-related AE, subjects: Nausea: 1
  Grade 3/4 drug-related AE, subjects: Other: 1
  Grade 3/4 drug-related AE, subjects: Palmar-Plantar Erythrodysesthesia: 0
  Grade 3/4 drug-related AE, subjects: SGOT Increased: 0
  Grade 3/4 drug-related AE, subjects: SGPT Increased: 0
  Total no. subjects with Grade 3/4 drug-related AE: 1
  Total no. subjects with SAE (drug related serious adverse events): 0
  Treatment termination, subjects: Death: 0
  Treatment termination, subjects: Drug-Related AE (hand-foot syndrome): 0
[1]; [12]
  Drug related serious adverse events, subjects: Nausea/Vomiting: 0
  Grade 3/4 drug-related AE, subjects: Allergic Reaction: 0
  Grade 3/4 drug-related AE, subjects: Liver and Biliary System: 0
  Grade 3/4 drug-related AE, subjects: Nausea: 0
  Grade 3/4 drug-related AE, subjects: Other: 0
  Grade 3/4 drug-related AE, subjects: Palmar-Plantar Erythrodysesthesia: 0
  Grade 3/4 drug-related AE, subjects: SGOT Increased: 0
  Grade 3/4 drug-related AE, subjects: SGPT Increased: 0
  Total no. subjects with Grade 3/4 drug-related AE: 0
  Total no. subjects with SAE (drug related serious adverse events): 0
  Treatment termination, subjects: Death: 0
  Treatment termination, subjects: Drug-Related AE (hand-foot syndrome): 0
[1]; [13]
  Drug related serious adverse events, subjects: Nausea/Vomiting: 0
  Grade 3/4 drug-related AE, subjects: Allergic Reaction: 0
  Grade 3/4 drug-related AE, subjects: Liver and Biliary System: 0
  Grade 3/4 drug-related AE, subjects: Nausea: 0
  Grade 3/4 drug-related AE, subjects: Other: 0
  Grade 3/4 drug-related AE, subjects: Palmar-Plantar Erythrodysesthesia: 0
  Grade 3/4 drug-related AE, subjects: SGOT Increased: 0
  Grade 3/4 drug-related AE, subjects: SGPT Increased: 0
  Total no. subjects with Grade 3/4 drug-related AE: 0
  Total no. subjects with SAE (drug related serious adverse events): 0
  Treatment termination, subjects: Death: 0
  Treatment termination, subjects: Drug-Related AE (hand-foot syndrome): 0
[1]; [14]
  Drug related serious adverse events, subjects: Nausea/Vomiting: 1
  Grade 3/4 drug-related AE, subjects: Allergic Reaction: 2
  Grade 3/4 drug-related AE, subjects: Liver and Biliary System: 6
  Grade 3/4 drug-related AE, subjects: Nausea: 1
  Grade 3/4 drug-related AE, subjects: Other: 4
  Grade 3/4 drug-related AE, subjects: Palmar-Plantar Erythrodysesthesia: 2
  Grade 3/4 drug-related AE, subjects: SGOT Increased: 1
  Grade 3/4 drug-related AE, subjects: SGPT Increased: 6
  Total no. subjects with Grade 3/4 drug-related AE: 10
  Total no. subjects with SAE (drug related serious adverse events): 1
  Treatment termination, subjects: Death: 0
  Treatment termination, subjects: Drug-Related AE (hand-foot syndrome): 1
[1]; [15]
  Drug related serious adverse events, subjects: Nausea/Vomiting: 0
  Grade 3/4 drug-related AE, subjects: Allergic Reaction: 0
  Grade 3/4 drug-related AE, subjects: Liver and Biliary System: 3
  Grade 3/4 drug-related AE, subjects: Nausea: 0
  Grade 3/4 drug-related AE, subjects: Other: 2
  Grade 3/4 drug-related AE, subjects: Palmar-Plantar Erythrodysesthesia: 2
  Grade 3/4 drug-related AE, subjects: SGOT Increased: 2*
  Grade 3/4 drug-related AE, subjects: SGPT Increased: 3*
  Total no. subjects with Grade 3/4 drug-related AE: 6
  Total no. subjects with SAE (drug related serious adverse events): 0
  Treatment termination, subjects: Death: 1
  Treatment termination, subjects: Drug-Related AE (hand-foot syndrome): 0
[1]; [16]
  Grade 3/4 drug-related AE, subjects: Allergic Reaction: 2
  Grade 3/4 drug-related AE, subjects: Liver and Biliary System: 9
  Grade 3/4 drug-related AE, subjects: Nausea: 2
  Grade 3/4 drug-related AE, subjects: Other: 7
  Grade 3/4 drug-related AE, subjects: Palmar-Plantar Erythrodysesthesia: 4
  Grade 3/4 drug-related AE, subjects: SGOT Increased: 3
  Grade 3/4 drug-related AE, subjects: SGPT Increased: 9
  Total no. subjects with Grade 3/4 drug-related AE: 17
  Total no. subjects with SAE (drug related serious adverse events): 1
  Treatment termination, subjects: Death: 1
  Treatment termination, subjects: Drug-Related AE (hand-foot syndrome): 1
[1]; both drugs at full (or near full) therapeutic doses for prolonged periods
  Tolerability of the combination: well tolerated
[1]; in combination with 30 mg/m^2 PLD, ET-743 over 3 hours
  ET-743 dose reached in dose escalation: 1.1 mg/m^2
[1]; in combination with PLD 30 mg/m^2, every 21 days, ET-743 i.v. over 3 hours
  maximum tolerated dose (MTD): 1.1 mg/m^2
[1]; plus 30 mg/m^2 of PLD
  recommended dose of the combination treatment: 1.1 mg/m^2
[2]
  clinical responses: promising responses were observed
[3]
  side effects: myelotoxic and hepatotoxic side effects
[4]; [10]
  Best Overall Response: PR (patients, tumour type): 1 Sarcoma
  Treatment termination, subjects: Disease Progression: 2
[4]; [11]
  Best Overall Response: PR (patients, tumour type): 0
  Treatment termination, subjects: Disease Progression: 1
[4]; [12]
  Best Overall Response: PR (patients, tumour type): 0
  Treatment termination, subjects: Disease Progression: 2
  Best Overall Response: SD (patients, tumour type): 1 Thyroid
[4]; [13]
  Best Overall Response: PR (patients, tumour type): 0
  Treatment termination, subjects: Disease Progression: 3
  Best Overall Response: SD (patients, tumour type): 0
[4]; [14]
  Best Overall Response: PR (patients, tumour type): 1 Sarcoma
  Treatment termination, subjects: Disease Progression: 5
[4]; [15]
  Treatment termination, subjects: Disease Progression: 2
[4]; ET-743 together with PLD, soft tissue sarcoma, ovarian and head and neck cancer
  Clinical benefit (measurable responses): measurable responses demonstrated evidence of clinical benefit
[4]; [16]
  Treatment termination, subjects: Disease Progression: 15
[5]
  acute toxicity finding: liver toxicity as an important side effect
[6]
  ET-743 dose that could be supported in dose escalation: 0.7 mg/m^2
[7]; [17]
  AUC∞: 39 ng·h/mL
  Cl: 23 l/h/m2
  Cmax: 6 ng/mL
  T1/2: 93 h
[7]; [18]
  AUC∞: 42 ng·h/mL
  Cl: 26 l/h/m2
  Cmax: 6 ng/mL
  T1/2: 65 h
[7]; [19]
  AUC∞: 31 ng·h/mL
  Cl: 44 l/h/m2
  Cmax: 7 ng/mL
  T1/2: 47 h
[7]
  Impact of concomitant PLD on the pharmacokinetics of trabectedin: does not have an impact
[7]; listed as trabectidin
  Impact of concomitant PLD on the pharmacokinetics of trabectedin: overtly not impacted
[8]
  antineoplastic activity: potent antineoplastic activity

## C[C@@H]1C[C@H]2[C@@H]3CCC4=CC(=O)C=C[C@]4(C)[C@@]3(F)[C@@H](O)C[C@]2(C)[C@@]1(O)C(=O)CO [dexamethasone]
[9]
  effect of pretreatment on ET-743 hepatotoxicity: abrogate ET-743-mediated hepatotoxicity
